Counter-ions that a name gives are not always drawn.
Legend:
Ba/F3 ERBB2 YVMA = Ba/F3 ERBB2 YVMA (Homo sapiens, UniProt P04626, DUP772-775, cells depend on it); assay: Cell viability assay (CellTiter Glo) in Ba/F3 cells engineered to express ERBB2 YVMA; assay type: cell-based, mouse; settings: Ba/F3 cells expressing human ERBB2 YVMA mutant, 72 hours, % viability, read-out: Ba/F3 ERBB2 YVMA IC50
How it was run: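 IL-3-independent mouse Ba/F3 line stably transduced with human ERBB2 YVMA, seeded at 3000 cells/well, exposed to serially diluted compound (≤0.1% DMSO) for 72 h at 37° C. ATP read by CellTiter Glo luminescence, normalised to DMSO and media-only controls; sigmoidal nonlinear regression fit.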

[1] = target: T1, phosphorylated ERBB2 (pERBB2) (Homo sapiens, UniProt P04626); assay: Detection of phosphorylated ERBB2 (pERBB2) by ELISA in BT-474 cells; assay type: cell-based; settings: four hour incubation with compound
T1 construct: endogenous in cells; host or cells: BT-474
T1 sequence (P04626 23-1255): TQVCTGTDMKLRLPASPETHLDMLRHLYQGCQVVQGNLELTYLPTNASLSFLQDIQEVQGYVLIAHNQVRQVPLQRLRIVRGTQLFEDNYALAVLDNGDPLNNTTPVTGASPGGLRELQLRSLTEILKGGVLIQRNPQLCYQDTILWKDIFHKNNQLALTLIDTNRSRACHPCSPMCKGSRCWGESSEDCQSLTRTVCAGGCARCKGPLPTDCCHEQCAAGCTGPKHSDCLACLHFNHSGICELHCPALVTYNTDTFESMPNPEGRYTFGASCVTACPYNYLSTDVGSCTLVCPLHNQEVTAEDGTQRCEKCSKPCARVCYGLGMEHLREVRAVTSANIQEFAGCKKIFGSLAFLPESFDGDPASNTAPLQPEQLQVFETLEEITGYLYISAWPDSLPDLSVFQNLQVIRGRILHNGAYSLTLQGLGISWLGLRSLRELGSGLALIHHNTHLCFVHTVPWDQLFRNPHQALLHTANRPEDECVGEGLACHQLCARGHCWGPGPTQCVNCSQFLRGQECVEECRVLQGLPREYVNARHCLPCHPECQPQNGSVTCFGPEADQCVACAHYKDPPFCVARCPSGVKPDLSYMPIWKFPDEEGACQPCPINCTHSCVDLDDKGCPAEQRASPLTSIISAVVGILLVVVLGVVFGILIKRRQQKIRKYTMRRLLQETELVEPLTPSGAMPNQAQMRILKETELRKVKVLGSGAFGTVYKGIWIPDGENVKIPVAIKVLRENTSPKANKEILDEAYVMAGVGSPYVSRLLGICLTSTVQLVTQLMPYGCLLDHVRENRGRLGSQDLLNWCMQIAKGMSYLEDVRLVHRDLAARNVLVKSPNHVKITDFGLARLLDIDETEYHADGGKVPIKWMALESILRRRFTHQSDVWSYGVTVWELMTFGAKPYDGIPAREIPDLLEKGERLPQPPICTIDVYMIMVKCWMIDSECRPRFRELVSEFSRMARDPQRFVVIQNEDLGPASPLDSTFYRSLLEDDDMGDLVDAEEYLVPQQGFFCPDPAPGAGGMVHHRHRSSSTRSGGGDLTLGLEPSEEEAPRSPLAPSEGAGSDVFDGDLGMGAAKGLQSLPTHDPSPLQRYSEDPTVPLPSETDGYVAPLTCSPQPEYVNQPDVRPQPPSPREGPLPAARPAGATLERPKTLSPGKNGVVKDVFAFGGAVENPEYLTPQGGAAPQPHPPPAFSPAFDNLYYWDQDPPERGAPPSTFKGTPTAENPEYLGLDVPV
How it was run: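 BT-474 cells treated 4 h at 37 °C, 5% CO2 with four-fold dilutions (10 μM to 0.01 nM final). Lysates analysed by ELISA for pERBB2, TMB read at OD 450 nm. % relative activity normalised to no-cell (low) and 0.1% DMSO-treated (high) controls.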

[2] = target: T2, phosphorylated EGFR (pEGFR) (Homo sapiens, UniProt P00533); assay: Detection of phosphorylated EGFR (pEGFR) in EGF-stimulated A431 cells (AlphaLISA); assay type: cell-based; settings: A431 cells (10% FBS), 4 hours incubation, EGF 30 ng/mL for 10 minutes
T2 construct: performed to measure phosphorylated EGFR levels using A431 cells; endogenous in cells; host or cells: A431
T2 sequence (P00533 25-1210): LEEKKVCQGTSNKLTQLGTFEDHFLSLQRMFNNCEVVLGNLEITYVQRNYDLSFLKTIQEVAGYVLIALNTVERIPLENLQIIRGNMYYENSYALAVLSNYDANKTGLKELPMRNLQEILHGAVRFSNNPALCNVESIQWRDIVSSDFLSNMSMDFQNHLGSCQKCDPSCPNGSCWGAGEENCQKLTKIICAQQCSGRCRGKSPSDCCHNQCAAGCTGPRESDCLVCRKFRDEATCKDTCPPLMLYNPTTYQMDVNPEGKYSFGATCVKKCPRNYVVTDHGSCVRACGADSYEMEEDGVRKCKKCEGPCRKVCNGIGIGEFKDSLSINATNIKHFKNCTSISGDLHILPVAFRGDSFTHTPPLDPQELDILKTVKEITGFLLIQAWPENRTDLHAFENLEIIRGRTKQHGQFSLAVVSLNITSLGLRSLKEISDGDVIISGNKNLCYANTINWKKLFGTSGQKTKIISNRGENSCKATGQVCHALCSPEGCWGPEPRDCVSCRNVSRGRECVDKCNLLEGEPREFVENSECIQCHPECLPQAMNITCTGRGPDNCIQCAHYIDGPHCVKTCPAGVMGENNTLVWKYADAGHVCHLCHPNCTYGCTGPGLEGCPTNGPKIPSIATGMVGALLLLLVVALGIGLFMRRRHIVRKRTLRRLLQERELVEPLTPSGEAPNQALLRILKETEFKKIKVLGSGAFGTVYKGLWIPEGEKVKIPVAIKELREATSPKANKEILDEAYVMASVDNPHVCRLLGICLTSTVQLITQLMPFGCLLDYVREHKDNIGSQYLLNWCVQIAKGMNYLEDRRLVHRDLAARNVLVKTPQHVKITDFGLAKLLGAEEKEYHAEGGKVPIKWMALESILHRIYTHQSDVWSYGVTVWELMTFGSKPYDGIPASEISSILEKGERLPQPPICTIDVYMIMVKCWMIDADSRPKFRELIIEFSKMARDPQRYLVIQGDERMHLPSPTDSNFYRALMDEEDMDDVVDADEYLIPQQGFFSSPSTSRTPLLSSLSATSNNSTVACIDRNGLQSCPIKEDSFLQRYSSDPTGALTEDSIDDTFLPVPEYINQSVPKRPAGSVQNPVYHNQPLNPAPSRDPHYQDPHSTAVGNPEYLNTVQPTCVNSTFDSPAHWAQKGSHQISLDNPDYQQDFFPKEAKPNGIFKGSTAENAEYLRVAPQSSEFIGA
How it was run: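 Cells in 10% FBS treated with compound 4 h at 37° C., then stimulated 10 min with 30 ng/mL EGF, lysed, and pEGFR measured by AlphaLISA. Inhibition normalized to DMSO and staurosporine controls; IC50 from four-parameter logistic fit.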

Sequence of Ba/F3 ERBB2 YVMA (P04626 with tags, fused parts or gaps DUP772-775): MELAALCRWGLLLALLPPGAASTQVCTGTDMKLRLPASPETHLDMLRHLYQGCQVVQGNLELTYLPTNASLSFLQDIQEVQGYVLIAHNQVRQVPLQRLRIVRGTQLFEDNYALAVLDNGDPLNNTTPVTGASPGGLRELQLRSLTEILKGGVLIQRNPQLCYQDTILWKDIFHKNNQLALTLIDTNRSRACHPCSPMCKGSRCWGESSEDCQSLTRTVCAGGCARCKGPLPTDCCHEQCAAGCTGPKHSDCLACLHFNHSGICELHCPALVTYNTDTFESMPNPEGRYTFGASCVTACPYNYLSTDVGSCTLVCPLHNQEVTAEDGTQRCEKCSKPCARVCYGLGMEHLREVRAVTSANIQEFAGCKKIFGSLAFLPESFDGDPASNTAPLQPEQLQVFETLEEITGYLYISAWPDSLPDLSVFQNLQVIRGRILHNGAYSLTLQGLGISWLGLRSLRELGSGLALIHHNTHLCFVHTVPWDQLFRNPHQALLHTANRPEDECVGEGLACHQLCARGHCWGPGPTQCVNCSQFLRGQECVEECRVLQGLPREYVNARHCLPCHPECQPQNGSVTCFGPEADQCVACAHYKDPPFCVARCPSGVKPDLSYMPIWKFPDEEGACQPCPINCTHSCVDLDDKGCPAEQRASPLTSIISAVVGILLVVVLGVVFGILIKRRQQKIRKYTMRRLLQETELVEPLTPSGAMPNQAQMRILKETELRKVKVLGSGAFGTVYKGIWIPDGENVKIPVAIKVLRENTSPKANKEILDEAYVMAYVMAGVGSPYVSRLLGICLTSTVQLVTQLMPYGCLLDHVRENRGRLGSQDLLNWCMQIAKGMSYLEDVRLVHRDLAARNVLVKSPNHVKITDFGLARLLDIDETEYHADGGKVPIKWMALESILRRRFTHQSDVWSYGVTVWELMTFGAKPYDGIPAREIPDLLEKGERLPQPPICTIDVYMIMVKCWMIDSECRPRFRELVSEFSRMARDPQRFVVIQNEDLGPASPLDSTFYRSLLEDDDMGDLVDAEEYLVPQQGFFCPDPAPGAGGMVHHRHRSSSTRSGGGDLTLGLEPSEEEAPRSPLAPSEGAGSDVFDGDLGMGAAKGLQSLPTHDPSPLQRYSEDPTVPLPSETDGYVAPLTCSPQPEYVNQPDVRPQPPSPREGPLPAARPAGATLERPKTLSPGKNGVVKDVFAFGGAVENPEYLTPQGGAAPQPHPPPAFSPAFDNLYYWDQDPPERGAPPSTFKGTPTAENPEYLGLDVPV

With `C=CC(=O)N1CCN(c2cc3c(Nc4ccc(Oc5ccn6ncnc6c5)c(C)c4)ncnc3cn2)C[C@H]1C` [Compound 55, 1-[(2R)-2-methyl-4-{4-[(3-methyl-4-{[1,2,4]triazolo[1,5-a]pyridin-7-yloxy}phenyl)amino]pyrido[3,4-d]pyrimidin-6-yl}piperazin-1-yl]prop-2-en-1-one] the GI50 (Ba/F3 ERBB2 YVMA) was 18.5 nM, the IC50 [1] was 12 nM and the IC50 [2] was 2580 nM.

`C=CC(=O)N1CCN(c2cc3c(Nc4ccc(Oc5ccn6ncnc6c5)c(C)c4)ncnc3cn2)[C@@H](C)C1` [Compound 69, (S)-1-(4-(4-((4-([1,2,4]triazolo[1,5-a]pyridin-7-yloxy)-3-methylphenyl)amino)pyrido[3,4-d]pyrimidin-6-yl)-3-methylpiperazin-1-yl)prop-2-en-1-one] was tested, and the GI50 (Ba/F3 ERBB2 YVMA) was 155 nM, the IC50 [1] was 59.6 nM and the IC50 [2] was over 10000 nM.

`C=C(F)C(=O)N1CCN(c2ccc3ncnc(Nc4ccc(Oc5ccn6ncnc6c5)c(C)c4)c3n2)CC1` [Compound 13, 2-fluoro-1-(4-{4-[(3-methyl-4-{[1,2,4]triazolo[1,5-a]pyridin-7-yloxy}phenyl)amino]pyrido[3,2-d]pyrimidin-6-yl}piperazin-1-yl)prop-2-en-1-one] was tested, and the GI50 (Ba/F3 ERBB2 YVMA) was 232 nM, the IC50 [1] was 97.5 nM and the IC50 [2] was over 10000 nM.

In the case of `C=CC(=O)N1CCN(c2cc3c(Nc4ccc(Cc5ccc6c(c5)ncn6C)c(C)c4)ncnc3cn2)CC1` [Compound 83, 1-{4-[4-({3-methyl-4-[(1-methyl-1,3-benzodiazol-5-yl)methyl]phenyl}amino)pyrido[3,4-d]pyrimidin-6-yl]piperazin-1-yl}prop-2-en-1-one; formic acid], the GI50 (Ba/F3 ERBB2 YVMA) is reported as 12.5 nM, the IC50 [1] is reported as 25.5 nM and the IC50 [2] is reported as 1390 nM.

`C=CC(=O)N1CCN(c2cc3c(Nc4ccc(CN5CCn6ncnc6C5)c(C)c4)ncnc3cn2)CC1` [Compound 99, 1-(4-{4-[(3-methyl-4-{5H,6H,8H-[1,2,4]triazolo[1,5-a]pyrazin-7-ylmethyl}phenyl)amino]pyrido[3,4-d]pyrimidin-6-yl}piperazin-1-yl)prop-2-en-1-one] showed a GI50 (Ba/F3 ERBB2 YVMA) of over 500 nM, an IC50 [1] of 227 nM and an IC50 [2] of over 10000 nM.

In the case of `C=CC(=O)N1CCN(c2cc3c(Nc4ccc(Oc5ccc(C(=O)NCC(C)(C)C)cc5)c(C)c4)ncnc3cn2)CC1` [Compound 39, N-(2,2-dimethylpropyl)-4-[2-methyl-4-({6-[4-(prop-2-enoyl)piperazin-1-yl]pyrido[3,4-d]pyrimidin-4-yl}amino)phenoxy]benzamide], the GI50 (Ba/F3 ERBB2 YVMA) is reported as 53 nM, the IC50 [1] is reported as 59.9 nM and the IC50 [2] is reported as 3360 nM.

`CC#CC(=O)N1CCN(c2ccc3ncnc(Nc4ccc(O[C@H]5CCCOC5)c(C)c4)c3n2)CC1` [Compound 33, 1-{4-[4-({3-methyl-4-[(3S)-oxan-3-yloxy]phenyl}amino)pyrido[3,2-d]pyrimidin-6-yl]piperazin-1-yl}but-2-yn-1-one] gave a GI50 (Ba/F3 ERBB2 YVMA) of 237 nM, an IC50 [1] of 524 nM and an IC50 [2] of 4050 nM.

Work on `C=CC(=O)N1CCC2(CC1)CN(c1ccc3ncnc(Nc4ccc(Oc5ccn6ncnc6c5)c(C)c4)c3n1)C2` [Compound 19, 1-(2-{4-[(3-methyl-4-{[1,2,4]triazolo[1,5-a]pyridin-7-yloxy}phenyl)amino]pyrido[3,2-d]pyrimidin-6-yl}-2,7-diazaspiro[3.5]nonan-7-yl)prop-2-en-1-one] yielded a GI50 (Ba/F3 ERBB2 YVMA) of 176 nM, an IC50 [1] of 98 nM and an IC50 [2] of over 10000 nM.

`Cc1cc(Nc2ncnc3ccc(N4CCN(C(=O)/C=C/CN(C)C)CC4)c(F)c23)ccc1Cc1ccn2ncnc2c1` [Compound 92, (2E)-4-(dimethylamino)-1-(4-{5-fluoro-4-[(3-methyl-4-{[1,2,4]triazolo[1,5-a]pyridin-7-ylmethyl}phenyl)amino]quinazolin-6-yl}piperazin-1-yl) but-2-en-1-one] was tested, and the GI50 (Ba/F3 ERBB2 YVMA) was 110 nM, the IC50 [1] was 31.6 nM and the IC50 [2] was over 10000 nM.

Work on `C=CC(=O)N1C2CCC1CN(c1ccc3ncnc(Nc4ccc(Oc5ccn6ncnc6c5)c(C)c4)c3n1)C2` [Compound 18, 1-(3-{4-[(3-methyl-4-{[1,2,4]triazolo[1,5-a]pyridin-7-yloxy}phenyl)amino]pyrido[3,2-d]pyrimidin-6-yl}-3,8-diazabicyclo[3.2.1]octan-8-yl)prop-2-en-1-one] yielded a GI50 (Ba/F3 ERBB2 YVMA) of 6.26 nM, an IC50 [1] of 13.4 nM and an IC50 [2] of 293 nM.

`C=CC(=O)N1CCN(c2ccc3ncnc(Nc4ccc(CN5CCn6ncnc6C5)c(C)c4)c3c2)CC1` [Compound 101, 1-(4-{4-[(3-methyl-4-{5H,6H,8H-[1,2,4]triazolo[1,5-a]pyrazin-7-ylmethyl}phenyl)amino]quinazolin-6-yl}piperazin-1-yl)prop-2-en-1-one] showed a GI50 (Ba/F3 ERBB2 YVMA) of over 500 nM, an IC50 [1] of 99 nM and an IC50 [2] of over 10000 nM.

Work on `C=CC(=O)N1CCN(c2ccc3ncnc(Nc4ccc(Cc5ccc6c(c5)ncn6C)c(C)c4)c3n2)C[C@H]1C` [Compound 53, 1-[(2R)-2-methyl-4-[4-({3-methyl-4-[(1-methyl-1,3-benzodiazol-5-yl)methyl]phenyl}amino)pyrido[3,2-d]pyrimidin-6-yl]piperazin-1-yl]prop-2-en-1-one] yielded a GI50 (Ba/F3 ERBB2 YVMA) of 14 nM, an IC50 [1] of 35.4 nM and an IC50 [2] of 1460 nM.

With `C=CC(=O)N1CCN(c2ccc3ncnc(Nc4ccc(Oc5ccc6c(c5)ncn6C)c(C)c4)c3n2)C[C@@H]1C` [Compound 47, 1-[(2S)-2-methyl-4-[4-({3-methyl-4-[(1-methyl-1,3-benzodiazol-5-yl)oxy]phenyl}amino)pyrido[3,2-d]pyrimidin-6-yl]piperazin-1-yl]prop-2-en-1-one] the GI50 (Ba/F3 ERBB2 YVMA) was 14 nM, the IC50 [1] was 30 nM and the IC50 [2] was 2440 nM.

For `Cc1cc(Nc2ncnc3ccc(N4CCN(C(=O)/C=C/CN(C)C)[C@H](C)C4)c(F)c23)ccc1Cc1ccn2ncnc2c1` [Compound 93, (2E)-4-(dimethylamino)-1-[(2R)-4-{5-fluoro-4-[(3-methyl-4-{[1,2,4]triazolo[1,5-a]pyridin-7-ylmethyl}phenyl)amino]quinazolin-6-yl}-2-methylpiperazin-1-yl]but-2-en-1-one formate], the GI50 (Ba/F3 ERBB2 YVMA) was 49 nM, the IC50 [1] was 30.7 nM and the IC50 [2] was over 10000 nM.

In the case of `C=CC(=O)N1CCN(c2ccc3ncnc(Nc4ccc(Oc5ccn6ncnc6c5)c(C)c4)c3n2)CC1(C)C` [Compound 108, 1-(4-(4-((4-([1,2,4]triazolo[1,5-a]pyridin-7-yloxy)-3-methylphenyl)amino)pyrido[3,2-d]pyrimidin-6-yl)-2,2-dimethylpiperazin-1-yl)prop-2-en-1-one], the GI50 (Ba/F3 ERBB2 YVMA) is reported as 10.9 nM, the IC50 [1] is reported as 10 nM and the IC50 [2] is reported as 695 nM.

In the case of `CC#CC(=O)N1CCN(c2ccc3ncnc(Nc4ccc(Oc5ccn6ncnc6c5)c(C)c4)c3n2)[C@H](C)C1` [Compound 24, 1-[(3R)-3-methyl-4-{4-[(3-methyl-4-{[1,2,4]triazolo[1,5-a]pyridin-7-yloxy}phenyl)amino]pyrido[3,2-d]pyrimidin-6-yl}piperazin-1-yl]but-2-yn-1-one], the GI50 (Ba/F3 ERBB2 YVMA) is reported as 68.9 nM, the IC50 [1] is reported as 91.4 nM and the IC50 [2] is reported as over 10000 nM.

With `C=CC(=O)N1CC2CC(C1)N2c1ccc2ncnc(Nc3ccc(Oc4ccn5ncnc5c4)c(C)c3)c2n1` [Compound 5, 1-(6-{4-[(3-methyl-4-{[1,2,4]triazolo[1,5-a]pyridin-7-yloxy}phenyl)amino]pyrido[3,2-d]pyrimidin-6-yl}-3,6-diazabicyclo[3.1.1]heptan-3-yl)prop-2-en-1-one] the GI50 (Ba/F3 ERBB2 YVMA) was 18 nM, the IC50 [1] was 17 nM and the IC50 [2] was 476 nM.

For `C=CC(=O)N1CCN(c2cc3c(Nc4ccc(Cc5ccc6c(c5)ncn6C)c(C)c4)ncnc3cn2)[C@@H](C)C1` [Compound 86, 1-[(3S)-3-methyl-4-[4-({3-methyl-4-[(1-methyl-1,3-benzodiazol-5-yl)methyl]phenyl}amino)pyrido[3,4-d]pyrimidin-6-yl]piperazin-1-yl]prop-2-en-1-one], the GI50 (Ba/F3 ERBB2 YVMA) was 20.5 nM, the IC50 [1] was 48.4 nM and the IC50 [2] was 3180 nM.

`C=CC(=O)N1CCN(c2ccc3ncnc(Nc4ccc(Oc5ccn6ncnc6c5)c(C)c4)c3c2)C[C@H]1C` [Compound 35, 1-[(2R)-2-methyl-4-{4-[(3-methyl-4-{[1,2,4]triazolo[1,5-a]pyridin-7-yloxy}phenyl)amino]quinazolin-6-yl}piperazin-1-yl]prop-2-en-1-one] was tested, and the GI50 (Ba/F3 ERBB2 YVMA) was 7.88 nM, the IC50 [1] was 13.6 nM and the IC50 [2] was 823 nM.

`C=CC(=O)N1CCN(c2ccc3ncnc(Nc4ccc(Cc5ccc6c(c5)ncn6C)c(C)c4)c3n2)CC1` [Compound 82, 1-{4-[4-({3-methyl-4-[(1-methyl-1,3-benzodiazol-5-yl)methyl]phenyl}amino)pyrido[3,2-d]pyrimidin-6-yl]piperazin-1-yl}prop-2-en-1-one] was tested, and the GI50 (Ba/F3 ERBB2 YVMA) was 93.9 nM, the IC50 [1] was 54.1 nM and the IC50 [2] was 2090 nM.

In the case of `C=CC(=O)N1CC[C@@H](Oc2ccc3ncnc(Nc4ccc(Oc5ccn6ncnc6c5)c(C)c4)c3c2)C1` [Compound 36, (R)-1-(3-((4-((4-([1,2,4]triazolo[1,5-a]pyridin-7-yloxy)-3-methylphenyl)amino)quinazolin-6-yl)oxy)pyrrolidin-1-yl)prop-2-en-1-one], the GI50 (Ba/F3 ERBB2 YVMA) is reported as 98.7 nM, the IC50 [1] is reported as 17.8 nM and the IC50 [2] is reported as over 10000 nM.

With `Cc1cc(Nc2ncnc3ccc(N4CCN(C(=O)/C=C/CN(C)C)C[C@@H]4C)nc23)ccc1Cc1ccn2ncnc2c1` [Compound 105, (2E)-4-(dimethylamino)-1-[(3S)-3-methyl-4-{4-[(3-methyl-4-{[1,2,4]triazolo[1,5-a]pyridin-7-ylmethyl}phenyl)amino]pyrido[3,2-d]pyrimidin-6-yl}piperazin-1-yl]but-2-en-1-one] the GI50 (Ba/F3 ERBB2 YVMA) was 145 nM, the IC50 [1] was 43.9 nM and the IC50 [2] was over 10000 nM.
